Biological target: T1, Human autotaxin enzyme (Homo sapiens, UniProt Q13822)
T1 construct: purchased R&D System
Experiment: Evaluation of autotaxin inhibitor, Method C (18:0 Lyso PC substrate, choline assay, Resorufin fluorescence)
Format: biochemical
Conditions: Method C (Test Example 3), read-out: Inhibitory activity (enzyme inhibitory activity, IC50)
In short: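 Recombinant human autotaxin with compound and 200 μM 18:0 Lyso PC (stock) in Tris-HCl pH 7.5, NaCl, MgCl2, Triton X-100, 2 h RT. Released choline detected via choline oxidase/peroxidase/Amplex-type reagent, 20 min, resorufin fluorescence 531/598 nm; % inhibition vs no-compound and no-enzyme controls, concentration-response curve.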

Structure (SMILES) | IC50 [nM]
CCCOCC1CN(CC(=O)NC2(CC#N)CC2)C(=O)c2cc(-c3ccc(Cl)cc3)nn21 (centres unmarked) [Compound I-0251] | 100 to 1000
CCCOCC1CN(CC(=O)NCC(C)(C)O)C(=O)c2cc(-c3ccc(Cl)cc3)nn21 (centres unmarked) [Compound I-0252] | 10 to 100
CCCOCC1CN(CC(=O)O)C(=O)c2cc(-c3ccc(Cl)cc3)nn21 (centres unmarked) [Compound I-0253] | ≥ 1000
CCCCC1CN(CC(=O)C2CCCCC2)C(=O)c2cc(-c3ccc(Cl)cc3)nn21 (centres unmarked) [Compound I-0254] | 10 to 100
CCCCC1CN(Cc2cccnc2)C(=O)c2cc(-c3ccc(Cl)cc3)nn21 (centres unmarked) [Compound I-0255] | 10 to 100
CCCCC1CN(Cc2ccccn2)C(=O)c2cc(-c3ccc(Cl)cc3)nn21 (centres unmarked) [Compound I-0256] | 100 to 1000
CCCCC1CN(Cc2ccncc2)C(=O)c2cc(-c3ccc(Cl)cc3)nn21 (centres unmarked) [Compound I-0257] | 100 to 1000
CCCCC1CN(Cc2cncn2C)C(=O)c2cc(-c3ccc(Cl)cc3)nn21 (centres unmarked) [Compound I-0258] | 100 to 1000
CCCCC1CN(Cc2ncn(C)n2)C(=O)c2cc(-c3ccc(Cl)cc3)nn21 (centres unmarked) [Compound I-0259] | 100 to 1000
CCCCC1CN(Cc2ncco2)C(=O)c2cc(-c3ccc(Cl)cc3)nn21 (centres unmarked) [Compound I-0260] | 100 to 1000
CCCCC1CN(Cc2nc3ccccc3o2)C(=O)c2cc(-c3ccc(Cl)cc3)nn21 (centres unmarked) [Compound I-0261] | 100 to 1000
CCCCC1CN(C(C(C)=O)c2ccccc2)C(=O)c2cc(-c3ccc(Cl)cc3)nn21 (centres unmarked) [Compound I-0262] | ≥ 1000
CCCCC1CN(C2CCCCC2=O)C(=O)c2cc(-c3ccc(Cl)cc3)nn21 (centres unmarked) [Compound I-0263] | 100 to 1000
CCCCC1CN(C2CCN(CC(F)(F)F)C2=O)C(=O)c2cc(-c3ccc(Cl)cc3)nn21 (centres unmarked) [Compound I-0264] | 10 to 100
CCCCC1CN(CCNC(=O)OC(C)(C)C)C(=O)c2cc(-c3ccc(Cl)cc3)nn21 (centres unmarked) [Compound I-0265] | 10 to 100
CCCCC1CN(CC2CNC(=O)O2)C(=O)c2cc(-c3ccc(Cl)cc3)nn21 (centres unmarked) [Compound I-0266] | 10 to 100
CCCCC1CN(CCn2cccc2)C(=O)c2cc(-c3ccc(Cl)cc3)nn21 (centres unmarked) [Compound I-0267] | 100 to 1000
CCCCC1CN(CC2CCCO2)C(=O)c2cc(-c3ccc(Cl)cc3)nn21 (centres unmarked) [Compound I-0268] | 10 to 100
CCCCC1CN(CC2CCOC2)C(=O)c2cc(-c3ccc(Cl)cc3)nn21 (centres unmarked) [Compound I-0269] | 10 to 100
CCCCC1CN(CCOc2ccccc2)C(=O)c2cc(-c3ccc(Cl)cc3)nn21 (centres unmarked) [Compound I-0270] | 100 to 1000
CCCCC1CN(CCOC)C(=O)c2cc(-c3ccc(Cl)cc3)nn21 (centres unmarked) [Compound I-0271] | 100 to 1000

Structure (SMILES) | IC50 [nM]
CCCCC1CN(CC2(c3ccc(OC)cc3)CC2)C(=O)c2cc(-c3ccc(Cl)cc3)nn21 (centres unmarked) [Compound I-0272] | ≥ 1000
CCCCC1CN(CCN2CCOCC2)C(=O)c2cc(-c3ccc(Cl)cc3)nn21 (centres unmarked) [Compound I-0273] | 100 to 1000
CCCCC1CN(C2COC2)C(=O)c2cc(-c3ccc(Cl)cc3)nn21 (centres unmarked) [Compound I-0274] | 100 to 1000
CCCCC1CN(CC2CN(C(C)C)C(=O)O2)C(=O)c2cc(-c3ccc(Cl)cc3)nn21 (centres unmarked) [Compound I-0275] | 10 to 100
CCCCC1CN(Cc2ccc(C#N)cc2)C(=O)c2cc(C3=CCC(C(F)(F)F)CC3)nn21 (centres unmarked) [Compound I-0276] | 100 to 1000
CCCCC1CN(Cc2ccc(C#N)cc2)C(=O)c2cc(-c3ccc(Cl)cn3)nn21 (centres unmarked) [Compound I-0277] | 100 to 1000
CCCCC1CN(Cc2ccc(C#N)cc2)C(=O)c2cc(-c3ccc(Cl)cc3CNC)nn21 (centres unmarked) [Compound I-0278] | ≥ 1000
CCCCC1CN(CC(=O)N2CCC(C(=O)OC)CC2)C(=O)c2cc(-c3ccc(Cl)cc3)nn21 (centres unmarked) [Compound I-0279] | 10 to 100
CCCCC1CN(Cc2ccc(C#N)cc2)C(=O)c2cc(-c3ccc(Cl)cc3C#N)nn21 (centres unmarked) [Compound I-0280] | 10 to 100
CCCCC1CN(Cc2ccc(C#N)cc2)C(=O)c2cc(-c3ccc(Cl)cc3N)nn21 (centres unmarked) [Compound I-0281] | 100 to 1000
CCCCC1CN(Cc2ccc(C#N)cc2)C(=O)c2cc(-c3ccc(Cl)cc3CN(C)C)nn21 (centres unmarked) [Compound I-0282] | ≥ 1000
CCCCC1CN(CC(=O)OC(C)(C)C)C(=O)c2cc(-c3ccc(Cl)cc3)nn21 (centres unmarked) [Compound I-0283] | 100 to 1000
CCCCC1CN(Cc2ccc(C#N)cc2)C(=O)c2cc(-c3ccc(Cl)cc3COC)nn21 (centres unmarked) [Compound I-0284] | ≥ 1000
CC(=O)Nc1cc(Cl)ccc1-c1cc2n(n1)[C@@H](C)CN(Cc1ccc(C#N)cc1)C2=O [Compound I-0285] | < 10
CCCCC1CN(c2ccc(CC(=O)O)cc2)C(=O)c2cc(-c3ccc(Cl)cc3)nn21 (centres unmarked) [Compound I-0286] | ≥ 1000
CCCCC1CN(c2ccc(CCC(=O)O)cc2)C(=O)c2cc(-c3ccc(Cl)cc3)nn21 (centres unmarked) [Compound I-0287] | ≥ 1000
CCCCC1CN(CN)C(=O)c2cc(-c3ccc(Cl)cc3)nn21 (centres unmarked) [Compound I-0288] | ≥ 1000
CCCCC1CN(CNC(=O)CC#N)C(=O)c2cc(-c3ccc(Cl)cc3)nn21 (centres unmarked) [Compound I-0289] | 10 to 100
CCCCC1CN(CNC(=O)CO)C(=O)c2cc(-c3ccc(Cl)cc3)nn21 (centres unmarked) [Compound I-0290] | 100 to 1000
CCCCC1CN(Cc2ccc(C#N)cc2)C(=O)c2cc(N3[C@@H]4CC[C@H]3CC(F)(F)C4)nn21 (some centres unmarked) [Compound I-0307] | ≥ 1000

Continued, values first:

IC50 [nM] | Structure (SMILES)
10 to 100 | CCCOCC1CN(Cc2ccc(C#N)cc2)C(=O)c2cc(-c3ccc(Cl)cc3)nn21 (centres unmarked) [Compound I-0291]
10 to 100 | CCCCC1CN(C2CCN(CC#N)C2=O)C(=O)c2cc(-c3ccc(Cl)cc3)nn21 (centres unmarked) [Compound I-0292]
100 to 1000 | CCCCC1CN(Cc2ccc(C#N)cc2)C(=O)c2cc(-c3ccc(Cl)cc3CC#N)nn21 (centres unmarked) [Compound I-0293]
10 to 100 | CCCCC1CN(CC(=O)OCC)C(=O)c2cc(-c3ccc(Cl)cc3)nn21 (centres unmarked) [Compound I-0294]
10 to 100 | CCCCCC1CN(CC(=O)N2CCC(C(=O)NC3(C#N)CC3)CC2)C(=O)c2cc(-c3ccc(Cl)cc3)nn21 (centres unmarked) [Compound I-0295]
100 to 1000 | C[C@H]1CN(Cc2ccc(C#N)cc2)C(=O)c2cc(-c3ccc(Cl)cc3C=O)nn21 [Compound I-0296]
100 to 1000 | C[C@H]1CN(Cc2ccc(C#N)cc2)C(=O)c2cc(-c3ccc(Cl)cc3CO)nn21 [Compound I-0297]
100 to 1000 | C[C@H]1CN(Cc2ccc(C#N)cc2)C(=O)c2cc(-c3ccc(Cl)cc3C#N)nn21 [Compound I-0298]
10 to 100 | CCCCC1CN(CC2CN(CC#N)C(=O)O2)C(=O)c2cc(-c3ccc(Cl)cc3)nn21 (centres unmarked) [Compound I-0299]
≥ 1000 | C[C@H]1CN(Cc2ccc(C#N)cc2)C(=O)c2cc(-c3ccc(Cl)cc3CC#N)nn21 [Compound I-0300]
≥ 1000 | CCCCC1CN(Cc2ccc(C#N)cc2)C(=O)c2cc(N(C)Cc3ccc(Cl)cc3)nn21 (centres unmarked) [Compound I-0301]
100 to 1000 | CCCCC1CN(Cc2ccc(C#N)cc2)C(=O)c2cc(N3CCC(F)(F)CC3)nn21 (centres unmarked) [Compound I-0302]
≥ 1000 | CCCCC1CN(Cc2ccc(C#N)cc2)C(=O)c2cc(N3CC(c4ccccc4)C3)nn21 (centres unmarked) [Compound I-0303]
≥ 1000 | CCCCC1CN(Cc2ccc(C#N)cc2)C(=O)c2cc(N3CCC(C#N)CC3)nn21 (centres unmarked) [Compound I-0304]
100 to 1000 | CCCCC1CN(Cc2ccc(C#N)cc2)C(=O)c2cc(N3CCC(C(F)(F)F)CC3)nn21 (centres unmarked) [Compound I-0305]
≥ 1000 | CCCCC1CN(Cc2ccc(C#N)cc2)C(=O)c2cc(N3Cc4ccccc4C3)nn21 (centres unmarked) [Compound I-0306]
≥ 1000 | CCCCC1CN(Cc2ccc(C#N)cc2)C(=O)c2cc(-c3ccc(Cl)cc3NS(C)(=O)=O)nn21 (centres unmarked) [Compound I-0308]

IC50 [nM] | Structure (SMILES)
100 to 1000 | CCCCC1CN(Cc2ccc(C#N)cc2)C(=O)c2cc(-c3ccc(Cl)cc3NC(=O)NC)nn21 (centres unmarked) [Compound I-0309]
≥ 1000 | CCCCCC1CN(c2ccc(C(=O)N(C)C)cc2)C(=O)c2cc(-c3ccc(Cl)cc3)nn21 (centres unmarked) [Compound I-0310]
< 10 | O=C(O)c1cccc(CN2CC(COCC(F)(F)F)n3nc(-c4ccc(Cl)cc4)cc3C2=O)c1 (centres unmarked) [Compound I-0311]
10 to 100 | CCCCC[C@@H]1CN(CC(=O)N2CCC(C(=O)O)CC2)C(=O)c2cc(-c3ccc(Cl)cc3)nn21 [Compound I-0312]
< 10 | CCCCC[C@@H]1CN(CC(=O)N2CCC(C(=O)O)CC2)C(=O)c2cc(-c3ccc(Cl)cc3)nn21 [Compound I-0313]
100 to 1000 | N#CC1(NC(=O)CN2CC(COCC(F)(F)F)n3nc(-c4ccc(Cl)cc4)cc3C2=O)CC1 (centres unmarked) [Compound I-0314]
100 to 1000 | CC(C)(O)CNC(=O)CN1CC(COCC(F)(F)F)n2nc(-c3ccc(Cl)cc3)cc2C1=O (centres unmarked) [Compound I-0315]
10 to 100 | CC(=O)Nc1cc(Cl)ccc1-c1cc2n(n1)[C@@H](C)CN(C[C@H]1CNC(=O)O1)C2=O [Compound I-0316]
100 to 1000 | CC(=O)Nc1cc(Cl)ccc1-c1cc2n(n1)[C@@H](C)CN(C[C@@H]1CNC(=O)O1)C2=O [Compound I-0317]
< 10 | O=C(O)C1CCN(C(=O)CN2CC(COCC(F)(F)F)n3nc(-c4ccc(Cl)cc4)cc3C2=O)CC1 (centres unmarked) [Compound I-0318]
< 10 | CCCOCC1CN(CC(=O)N2CCC(C(=O)O)CC2)C(=O)c2cc(-c3ccc(Cl)cc3)nn21 (centres unmarked) [Compound I-0319]
≥ 1000 | C[C@H]1CN(Cc2ccc(C#N)cc2)C(=O)c2cc(-c3ccc(Cl)cc3N)nn21 [Compound I-0320]
10 to 100 | CCCC(=O)Nc1cc(Cl)ccc1-c1cc2n(n1)[C@@H](C)CN(Cc1ccc(C#N)cc1)C2=O [Compound I-0321]
10 to 100 | C[C@H]1CN(Cc2ccc(C#N)cc2)C(=O)c2cc(-c3ccc(Cl)cc3NC(=O)C3CC3)nn21 [Compound I-0322]
100 to 1000 | C[C@H]1CN(Cc2ccc(C#N)cc2)C(=O)c2cc(-c3ccc(Cl)cc3NS(C)(=O)=O)nn21 [Compound I-0323]
≥ 1000 | C[C@H]1CN(Cc2ccc(C#N)cc2)C(=O)c2cc(-c3ccc(Cl)cc3Nc3nccs3)nn21 [Compound I-0324]

— patent US10189843B2, “Fused pyrazole derivative having autotaxin inhibitory activity” (The University of Tokyo, priority 2014, dated 2019)
